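Grown in 96-well plates, cells were treated for 48 hours with each compound at five concentrations. Insufficient inhibition: endpoint recorded as highest concentration tested. GI50 = concentration required for 50% inhibition of growth. TGI denotes the concentration required for complete inhibition of growth.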
Key:
Experiment in all cases: growth of human tumour cells (NCI), 48 h
786-0 renal = system: 786-0 renal
A498 renal = system: A498 renal
A549 NSCLC = system: A549 NSCLC
ACHN renal = system: ACHN renal
BT-549 breast = system: BT-549 breast
CAKI-1 renal = system: CAKI-1 renal
CCRF-CEM leukemia = system: CCRF-CEM leukemia
DU-145 prostate = system: DU-145 prostate
EKVX NSCLC = system: EKVX NSCLC
HCC-2998 colon = system: HCC-2998 colon
HCT-116 colon = system: HCT-116 colon
HCT-15 colon = system: HCT-15 colon
HL-60(TB) leukemia = system: HL-60(TB) leukemia
HOP-62 NSCLC = system: HOP-62 NSCLC
HOP-92 NSCLC = system: HOP-92 NSCLC
HS 578T breast = system: HS 578T breast
HT29 colon = system: HT29 colon
IGROV1 ovarian = system: IGROV1 ovarian
K-562 leukemia = system: K-562 leukemia
KM12 colon = system: KM12 colon
LOX IMVI melanoma = system: LOX IMVI melanoma
M14 melanoma = system: M14 melanoma
MALME-3M melanoma = system: MALME-3M melanoma
MCF7 breast = system: MCF7 breast
MDA-MB-231 breast = system: MDA-MB-231 breast
MDA-MB-435 = system: MDA-MB-435
MOLT-4 leukemia = system: MOLT-4 leukemia
NCI-H460 lung = system: NCI-H460 lung
NCI-H522 lung = system: NCI-H522 lung
NCI/ADR-RES ovarian = system: NCI/ADR-RES ovarian
OVCAR-3 ovarian = system: OVCAR-3 ovarian
OVCAR-4 ovarian = system: OVCAR-4 ovarian
OVCAR-5 ovarian = system: OVCAR-5 ovarian
OVCAR-8 ovarian = system: OVCAR-8 ovarian
PC-3 prostate = system: PC-3 prostate
RPMI-8226 leukemia = system: RPMI-8226 leukemia
RXF 393 renal = system: RXF 393 renal
SF-295 CNS = system: SF-295 CNS
SF-539 CNS = system: SF-539 CNS
SK-MEL-2 melanoma = system: SK-MEL-2 melanoma
SK-MEL-28 melanoma = system: SK-MEL-28 melanoma
SK-MEL-5 melanoma = system: SK-MEL-5 melanoma
SK-OV-3 ovarian = system: SK-OV-3 ovarian
SN12C renal = system: SN12C renal
SNB-19 CNS = system: SNB-19 CNS
SR leukemia = system: SR leukemia
T-47D breast = system: T-47D breast
TK-10 renal = system: TK-10 renal
U251 CNS = system: U251 CNS
UACC-257 melanoma = system: UACC-257 melanoma
UACC-62 melanoma = system: UACC-62 melanoma
UO-31 renal = system: UO-31 renal

SMILES: COc1ccc(-c2nc3cc(Cl)c(Cl)cc3n2CC(=O)N=Nc2c(O)[nH]c3ccc(Cl)cc23)cc1
- GI50 (786-0 renal): 1.8 µM
- TGI (786-0 renal): 3.28 µM
- GI50 (A498 renal): 1.91 µM
- TGI (A498 renal): 3.55 µM
- GI50 (A549 NSCLC): 1.76 µM
- TGI (A549 NSCLC): 3.53 µM
- GI50 (ACHN renal): 1.78 µM
- TGI (ACHN renal): 3.2 µM
- GI50 (BT-549 breast): 2.51 µM
- TGI (BT-549 breast): 6.44 µM
- GI50 (CAKI-1 renal): 1.5 µM
- TGI (CAKI-1 renal): 2.85 µM
- GI50 (CCRF-CEM leukemia): 3.93 µM
- TGI (CCRF-CEM leukemia): > 100 µM
- GI50 (DU-145 prostate): 1.86 µM
- TGI (DU-145 prostate): 3.5 µM
- GI50 (EKVX NSCLC): 2.12 µM
- TGI (EKVX NSCLC): 4.94 µM
- GI50 (HCC-2998 colon): 1.92 µM
- TGI (HCC-2998 colon): 3.56 µM
- GI50 (HCT-116 colon): 1.83 µM
- TGI (HCT-116 colon): 3.35 µM
- GI50 (HCT-15 colon): 1.92 µM
- TGI (HCT-15 colon): 3.88 µM
- GI50 (HL-60(TB) leukemia): 4.87 µM
- TGI (HL-60(TB) leukemia): > 100 µM
- GI50 (HOP-62 NSCLC): 1.61 µM
- TGI (HOP-62 NSCLC): 3.16 µM
- GI50 (HOP-92 NSCLC): 1.16 µM
- TGI (HOP-92 NSCLC): 2.77 µM
- GI50 (HS 578T breast): 2.12 µM
- TGI (HS 578T breast): 5.53 µM
- GI50 (HT29 colon): 1.83 µM
- TGI (HT29 colon): 3.5 µM
- GI50 (IGROV1 ovarian): 1.74 µM
- TGI (IGROV1 ovarian): 3.46 µM
- GI50 (K-562 leukemia): 2.43 µM
- TGI (K-562 leukemia): 6.22 µM
- GI50 (KM12 colon): 2.15 µM
- TGI (KM12 colon): 5.18 µM
- GI50 (LOX IMVI melanoma): 1.78 µM
- TGI (LOX IMVI melanoma): 3.33 µM
- GI50 (M14 melanoma): 1.81 µM
- TGI (M14 melanoma): 3.5 µM
- GI50 (MALME-3M melanoma): 1.76 µM
- TGI (MALME-3M melanoma): 3.37 µM
- GI50 (MCF7 breast): 1.83 µM
- TGI (MCF7 breast): 3.62 µM
- GI50 (MDA-MB-231 breast): 1.85 µM
- TGI (MDA-MB-231 breast): 3.97 µM
- GI50 (MDA-MB-435): 1.74 µM
- TGI (MDA-MB-435): 3.4 µM
- GI50 (MOLT-4 leukemia): 4.44 µM
- TGI (MOLT-4 leukemia): > 100 µM
- GI50 (NCI-H460 lung): 1.86 µM
- TGI (NCI-H460 lung): 3.51 µM
- GI50 (NCI-H522 lung): 1.73 µM
- TGI (NCI-H522 lung): 3.72 µM
- GI50 (NCI/ADR-RES ovarian): 1.84 µM
- TGI (NCI/ADR-RES ovarian): 3.79 µM
- GI50 (OVCAR-3 ovarian): 1.73 µM
- TGI (OVCAR-3 ovarian): 3.2 µM
- GI50 (OVCAR-4 ovarian): 1.74 µM
- TGI (OVCAR-4 ovarian): 3.37 µM
- GI50 (OVCAR-5 ovarian): 1.91 µM
- TGI (OVCAR-5 ovarian): 3.78 µM
- GI50 (OVCAR-8 ovarian): 1.76 µM
- TGI (OVCAR-8 ovarian): 3.29 µM
- GI50 (PC-3 prostate): 1.68 µM
- TGI (PC-3 prostate): 3.34 µM
- GI50 (RPMI-8226 leukemia): 2.31 µM
- TGI (RPMI-8226 leukemia): 6.54 µM
- GI50 (RXF 393 renal): 1.72 µM
- TGI (RXF 393 renal): 3.17 µM
- GI50 (SF-295 CNS): 1.94 µM
- TGI (SF-295 CNS): 3.6 µM
- GI50 (SF-539 CNS): 1.71 µM
- TGI (SF-539 CNS): 3.18 µM
- GI50 (SK-MEL-2 melanoma): 1.85 µM
- TGI (SK-MEL-2 melanoma): 3.62 µM
- GI50 (SK-MEL-28 melanoma): 1.78 µM
- TGI (SK-MEL-28 melanoma): 3.25 µM
- GI50 (SK-MEL-5 melanoma): 2 µM
- TGI (SK-MEL-5 melanoma): 4.04 µM
- GI50 (SK-OV-3 ovarian): 1.64 µM
- TGI (SK-OV-3 ovarian): 3.24 µM
- GI50 (SN12C renal): 1.95 µM
- TGI (SN12C renal): 3.76 µM
- GI50 (SNB-19 CNS): 2 µM
- TGI (SNB-19 CNS): 4.21 µM
- GI50 (SR leukemia): 3.03 µM
- TGI (SR leukemia): > 100 µM
- GI50 (T-47D breast): 1.71 µM
- TGI (T-47D breast): 3.56 µM
- GI50 (TK-10 renal): 2.86 µM
- TGI (TK-10 renal): 7.07 µM
- GI50 (U251 CNS): 1.69 µM
- TGI (U251 CNS): 3.14 µM
- GI50 (UACC-257 melanoma): 1.64 µM
- TGI (UACC-257 melanoma): 3.29 µM
- GI50 (UACC-62 melanoma): 1.7 µM
- TGI (UACC-62 melanoma): 3.39 µM
- GI50 (UO-31 renal): 1.26 µM
- TGI (UO-31 renal): 2.53 µM

— PubChem BioAssay (NCI)
